From ChEMBL document CHEMBL4011590, “Structure-activity relationship studies on 3,5-dinitrophenyl tetrazoles as antitubercular agents” (Eur J Med Chem, 2017)
pIC50: −log10 of the molar value. Converted amounts (≈) assume the structure as drawn.

Legend:
[1] = tested on: Mycobacterium tuberculosis; assay: Antimycobacterial activity against Mycobacterium tuberculosis H37Rv CNCTC My 331/88 after 14 days by micromethod; assay type: functional; conditions: H37Rv CNCTC My 331/88, 336 h
[2] = tested on: Mycobacterium tuberculosis; assay: Antimycobacterial activity against Mycobacterium tuberculosis H37Rv CNCTC My 331/88 after 21 days by micromethod; assay type: functional; conditions: H37Rv CNCTC My 331/88, 504 h
[3] = tested on: Mycobacterium avium; assay: Antimycobacterial activity against Mycobacterium avium CNCTC My 330/80 after 14 days by micromethod; assay type: functional; conditions: CNCTC My 330/80, 336 h
[4] = tested on: Mycobacterium avium; assay: Antimycobacterial activity against Mycobacterium avium CNCTC My 330/80 after 21 days by micromethod; assay type: functional; conditions: CNCTC My 330/80, 504 h
[5] = tested on: Mycobacterium kansasii; assay: Antimycobacterial activity against Mycobacterium kansasii CNCTC My 235/80 after 7 days by micromethod; assay type: functional; conditions: CNCTC My 235/80, 168 h
[6] = tested on: Mycobacterium kansasii; assay: Antimycobacterial activity against Mycobacterium kansasii CNCTC My 235/80 after 14 days by micromethod; assay type: functional; conditions: CNCTC My 235/80, 336 h
[7] = tested on: Mycobacterium kansasii; assay: Antimycobacterial activity against Mycobacterium kansasii CNCTC My 235/80 after 21 days by micromethod; assay type: functional; conditions: CNCTC My 235/80, 504 h
[8] = tested on: Mycobacterium kansasii; assay: Antimycobacterial activity against Mycobacterium kansasii isolate 6509/96 after 7 days by micromethod; assay type: functional; conditions: isolate 6509/96, 168 h
[9] = tested on: Mycobacterium kansasii; assay: Antimycobacterial activity against Mycobacterium kansasii isolate 6509/96 after 14 days by micromethod; assay type: functional; conditions: isolate 6509/96, 336 h
[10] = tested on: Mycobacterium kansasii; assay: Antimycobacterial activity against Mycobacterium kansasii isolate 6509/96 after 21 days by micromethod; assay type: functional; conditions: isolate 6509/96, 504 h
[11] = tested on: CHO-K1; assay: Cytotoxicity against CHOK1 cells after 24 hrs by MTT assay; assay type: cell-based; conditions: Cricetulus griseus, CHO-K1, 24 h
[12] = tested on: Staphylococcus aureus; assay: Antibacterial activity against Staphylococcus aureus ATCC 6538 after 24 hrs by broth microdilution method; assay type: functional; conditions: ATCC 6538, 24 h
[13] = tested on: Staphylococcus aureus; assay: Antibacterial activity against Staphylococcus aureus ATCC 6538 after 48 hrs by broth microdilution method; assay type: functional; conditions: ATCC 6538, 48 h
[14] = tested on: Staphylococcus aureus; assay: Antibacterial activity against methicillin-resistant Staphylococcus aureus HK5996/08 after 24 hrs by broth microdilution method; assay type: functional; conditions: HK5996/08, 24 h
[15] = tested on: Staphylococcus aureus; assay: Antibacterial activity against methicillin-resistant Staphylococcus aureus HK5996/08 after 48 hrs by broth microdilution method; assay type: functional; conditions: HK5996/08, 48 h
[16] = tested on: Staphylococcus epidermidis; assay: Antibacterial activity against Staphylococcus epidermidis HK6966/08 after 24 hrs by broth microdilution method; assay type: functional; conditions: HK6966/08, 24 h
[17] = tested on: Staphylococcus epidermidis; assay: Antibacterial activity against Staphylococcus epidermidis HK6966/08 after 48 hrs by broth microdilution method; assay type: functional; conditions: HK6966/08, 48 h
[18] = tested on: Enterococcus sp.; assay: Antibacterial activity against Enterococcus sp. HK14365/08 after 24 hrs by broth microdilution method; assay type: functional; conditions: HK14365/08, 24 h
[19] = tested on: Enterococcus sp.; assay: Antibacterial activity against Enterococcus sp. HK14365/08 after 48 hrs by broth microdilution method; assay type: functional; conditions: HK14365/08, 48 h
[20] = tested on: Escherichia coli; assay: Antibacterial activity against Escherichia coli ATCC 8739 after 24 hrs by broth microdilution method; assay type: functional; conditions: ATCC 8739, 24 h
[21] = tested on: Escherichia coli; assay: Antibacterial activity against Escherichia coli ATCC 8739 after 48 hrs by broth microdilution method; assay type: functional; conditions: ATCC 8739, 48 h
[22] = tested on: Klebsiella pneumoniae; assay: Antibacterial activity against Klebsiella pneumoniae HK11750/08 after 24 hrs by broth microdilution method; assay type: functional; conditions: HK11750/08, 24 h
[23] = tested on: Klebsiella pneumoniae; assay: Antibacterial activity against Klebsiella pneumoniae HK11750/08 after 48 hrs by broth microdilution method; assay type: functional; conditions: HK11750/08, 48 h
[24] = tested on: Klebsiella pneumoniae; assay: Antibacterial activity against extended spectrum beta-lactamase producing Klebsiella pneumoniae HK14368/08 after 24 hrs by broth microdilution method; assay type: functional; conditions: HK14368/08, 24 h
[25] = tested on: Klebsiella pneumoniae; assay: Antibacterial activity against extended spectrum beta-lactamase producing Klebsiella pneumoniae HK14368/08 after 48 hrs by broth microdilution method; assay type: functional; conditions: HK14368/08, 48 h
[26] = tested on: Pseudomonas aeruginosa; assay: Antibacterial activity against Pseudomonas aeruginosa ATCC 9027 after 24 hrs by broth microdilution method; assay type: functional; conditions: ATCC 9027, 24 h
[27] = tested on: Pseudomonas aeruginosa; assay: Antibacterial activity against Pseudomonas aeruginosa ATCC 9027 after 48 hrs by broth microdilution method; assay type: functional; conditions: ATCC 9027, 48 h
[28] = tested on: Candida albicans; assay: Antifungal activity against Candida albicans ATCC 44859 after 24 hrs by broth microdilution method; assay type: functional; conditions: ATCC 44859, 24 h
[29] = tested on: Candida albicans; assay: Antifungal activity against Candida albicans ATCC 44859 after 48 hrs by broth microdilution method; assay type: functional; conditions: ATCC 44859, 48 h
[30] = tested on: Candida tropicalis; assay: Antifungal activity against Candida tropicalis 156 after 24 hrs by broth microdilution method; assay type: functional; conditions: Candida tropicalis, 156, 24 h
[31] = tested on: Candida tropicalis; assay: Antifungal activity against Candida tropicalis 156 after 48 hrs by broth microdilution method; assay type: functional; conditions: Candida tropicalis, 156, 48 h
[32] = tested on: Pichia kudriavzevii; assay: Antifungal activity against Candida krusei E28 after 24 hrs by broth microdilution method; assay type: functional; conditions: E28, 24 h
[33] = tested on: Pichia kudriavzevii; assay: Antifungal activity against Candida krusei E28 after 48 hrs by broth microdilution method; assay type: functional; conditions: E28, 48 h
[34] = tested on: Nakaseomyces glabratus; assay: Antifungal activity against Candida glabrata 20/I after 24 hrs by broth microdilution method; assay type: functional
[35] = tested on: Nakaseomyces glabratus; assay: Antifungal activity against Candida glabrata 20/I after 48 hrs by broth microdilution method; assay type: functional
[36] = tested on: Trichosporon asahii; assay: Antifungal activity against Trichosporon asahii 1188 after 24 hrs by broth microdilution method; assay type: functional; conditions: Trichosporon asahii, 1188, 24 h
[37] = tested on: Trichosporon asahii; assay: Antifungal activity against Trichosporon asahii 1188 after 48 hrs by broth microdilution method; assay type: functional; conditions: Trichosporon asahii, 1188, 48 h
[38] = tested on: Aspergillus fumigatus; assay: Antifungal activity against Aspergillus fumigatus 231 after 24 hrs by broth microdilution method; assay type: functional; conditions: Aspergillus fumigatus, 231, 24 h
[39] = tested on: Aspergillus fumigatus; assay: Antifungal activity against Aspergillus fumigatus 231 after 48 hrs by broth microdilution method; assay type: functional; conditions: Aspergillus fumigatus, 231, 48 h
[40] = tested on: Lichtheimia corymbifera; assay: Antifungal activity against Absidia corymbifera 272 after 24 hrs by broth microdilution method; assay type: functional; conditions: Lichtheimia corymbifera, 272, 24 h
[41] = tested on: Lichtheimia corymbifera; assay: Antifungal activity against Absidia corymbifera 272 after 48 hrs by broth microdilution method; assay type: functional; conditions: Lichtheimia corymbifera, 272, 48 h
[42] = tested on: Trichophyton mentagrophytes; assay: Antifungal activity against Trichophyton mentagrophytes 445 after 72 hrs by broth microdilution method; assay type: functional; conditions: Trichophyton mentagrophytes, 445, 72 h
[43] = tested on: Trichophyton mentagrophytes; assay: Antifungal activity against Trichophyton mentagrophytes 445 after 120 hrs by broth microdilution method; assay type: functional; conditions: Trichophyton mentagrophytes, 445, 120 h

O=[N+]([O-])c1cc(-c2nnn(Cc3ccccc3F)n2)cc([N+](=O)[O-])c1
MIC99 [1]: 0.5 µM (≈ 0.172 µg/mL)
MIC99 [2]: 0.5 µM (≈ 0.172 µg/mL)
MIC99 [3]: 8 µM (≈ 2.75 µg/mL)
MIC99 [4]: 16 µM (≈ 5.51 µg/mL)
MIC99 [5]: 0.5 µM (≈ 0.172 µg/mL)
MIC99 [6]: 1 µM (≈ 0.344 µg/mL)
MIC99 [7]: 2 µM (≈ 0.689 µg/mL)
MIC99 [8]: 1 µM (≈ 0.344 µg/mL)
MIC99 [9]: 1 µM (≈ 0.344 µg/mL)
MIC99 [10]: 2 µM (≈ 0.689 µg/mL)
pIC50 [11]: < 3.70
MIC [12]: 500 µM (≈ 172 µg/mL)
MIC [13]: 500 µM (≈ 172 µg/mL)
MIC [14]: 500 µM (≈ 172 µg/mL)
MIC [15]: 500 µM (≈ 172 µg/mL)
MIC [16]: 250 µM (≈ 86.1 µg/mL)
MIC [17]: 250 µM (≈ 86.1 µg/mL)
MIC [18]: > 500 µM
MIC [19]: > 500 µM
MIC [20]: > 500 µM
MIC [21]: > 500 µM
MIC [22]: > 500 µM
MIC [23]: > 500 µM
MIC [24]: > 500 µM
MIC [25]: > 500 µM
MIC [26]: > 500 µM
MIC [27]: > 500 µM
MIC [28]: > 500 µM
MIC [29]: > 500 µM
MIC [30]: > 500 µM
MIC [31]: > 500 µM
MIC [32]: > 500 µM
MIC [33]: > 500 µM
MIC [34]: > 500 µM
MIC [35]: > 500 µM
MIC [36]: > 500 µM
MIC [37]: > 500 µM
MIC [38]: > 500 µM
MIC [39]: > 500 µM
MIC [40]: > 500 µM
MIC [41]: > 500 µM
MIC [42]: > 500 µM
MIC [43]: > 500 µM

O=[N+]([O-])c1cc(-c2nnn(Cc3ccc(F)cc3)n2)cc([N+](=O)[O-])c1
MIC99 [1]: 0.25 µM (≈ 0.0861 µg/mL)
MIC99 [2]: 0.5 µM (≈ 0.172 µg/mL)
MIC99 [3]: 8 µM (≈ 2.75 µg/mL)
MIC99 [4]: 8 µM (≈ 2.75 µg/mL)
MIC99 [5]: 1 µM (≈ 0.344 µg/mL)
MIC99 [6]: 2 µM (≈ 0.689 µg/mL)
MIC99 [7]: 2 µM (≈ 0.689 µg/mL)
MIC99 [8]: 1 µM (≈ 0.344 µg/mL)
MIC99 [9]: 2 µM (≈ 0.689 µg/mL)
MIC99 [10]: 4 µM (≈ 1.38 µg/mL)
pIC50 [11]: 4.46
MIC [12]: > 500 µM
MIC [13]: > 500 µM
MIC [14]: > 500 µM
MIC [15]: > 500 µM
MIC [16]: > 500 µM
MIC [17]: > 500 µM
MIC [18]: > 500 µM
MIC [19]: > 500 µM
MIC [20]: > 500 µM
MIC [21]: > 500 µM
MIC [22]: > 500 µM
MIC [23]: > 500 µM
MIC [24]: > 500 µM
MIC [25]: > 500 µM
MIC [26]: > 500 µM
MIC [27]: > 500 µM
MIC [28]: > 500 µM
MIC [29]: > 500 µM
MIC [30]: > 500 µM
MIC [31]: > 500 µM
MIC [32]: > 500 µM
MIC [33]: > 500 µM
MIC [34]: > 500 µM
MIC [35]: > 500 µM
MIC [36]: > 500 µM
MIC [37]: > 500 µM
MIC [38]: > 500 µM
MIC [39]: > 500 µM
MIC [40]: > 500 µM
MIC [41]: > 500 µM
MIC [42]: > 500 µM
MIC [43]: > 500 µM
